# From patent US20210317111A1, “NOVEL MEDICAMENT FOR TREATING INFLAMMATORY BOWEL DISEASE” (OTSUKA PHARMACEUTICAL CO., LTD., priority 2018, published 2021)
# How the values were obtained:
# [1] = system: naive T cell transfer model of colitis; experiment: naive T cell transfer model of colitis (Crohn's disease mouse model), histological scoring of large intestine; type: in vivo
# Source text: From spleen of Balb/c mouse, naive T cell (CD4+CD62L+CD44−) was isolated with antibody-coated magnetic beads. The isolated naive T cell (5×10^5 cells/mouse) was transplanted in abdominal cavity of SCID mouse which is a severe combined immunodeficiency animal. The present compound was orally administered to the mouse once a day at each dose defined in Table 1 below, from the first day of the transplantation for Test 1, or from the 2nd week after the transplantation for Test 2, until 5 weeks after the transplantation. [table] […] The anti-TNF-α antibody was intraperitoneally administered to the mouse twice a week at each dose defined in Table 2 below, from the 2nd week after the transplantation, for 2 weeks. [table] At 5th week for Tests 1 and 2, and at 4th week for Test 3, the large intestine was removed, and the length and weight of the large intestine were measured. In addition, the large intestine was fixed with formalin to carry out pathological analysis. From the removed large intestine, the anus part, the center part, and the cecal part were cut out each in about 0.5 cm, and each part was fixed with formalin. The paraffin block thereof was prepared, sliced, and subjected to H&E staining. The H&E stained slice was examined with a microscope to score it histologically. The histological scoring was carried out by scoring the inflammatory cell infiltrate, the Goblet cell loss, and the hyperplasia of mucosal epithelium, based on the standard (0-4) defined in Table 3 below. [table]
# TNBS-induced enteritis = TNBS-induced enteritis model; type: in vivo, rat
# Description: An enteritis animal model induced with 2,4,6-trinitrobenzenesulfonic acid (TNBS) is widely used as Crohn's disease model since the inflammatory finding is pathologically similar to that of human Crohn's disease. In addition, the enteritis model was used in the non-clinical study of mesalazine that is a medicament for treating Crohn's disease. Thus, this enteritis model was used as Crohn's disease model for evaluating the present compound.
# Rats were made to be fasted for 24 or 48 hours, and the body weight were measured. The rats were laparotomized under isoflurane anesthesia, and 50% ethanol (0.25 mL) containing 60 mg/mL 2,4,6-trinitrobenzenesulfonic acid (TNBS) was injected into the large intestine from the cecum side toward the anal side to induce the injury. Each group composed of 12 rats was set, and vehicle, the present compound, or salazosulfapyridine (SASP) which is an already-existing drug for treating inflammatory bowel disease were administered for 7 days from the first day after the injection of TNBS. On the 8th day, each rat was laparotomized under anesthesia and killed by exsanguination. The large intestine was removed from the anus to the cecum, the large intestine was longitudinally incised, and the incised large intestine was washed with a cold saline. The lesion area of the large intestine was photographed with a digital camera. The area of the lesion area in the photograph of the large intestine was measured using image analyzing program.
# Each compound was orally administered at a dose of 100 mg/kg twice a day from one day after inducing enteritis with TNBS. Each area of the lesion area on the 8th day was compared.
# DSS-induced colitis = DSS-induced colitis model, stool scores; type: in vivo, rat; details: for deaths: 8 animals per group
# Source text: A colitis model induced by dextran sulfate sodium (DSS) is widely used as an experimental ulcerative colitis model having similarities of human ulcerative colitis regarding suppression of weight gain, colitis symptoms such as bloody stools and diarrhea, and injury formation in the large intestine. The effect of the present compound on the ulcerative colitis model was examined, and it was compared with salazosulfapyridine (SASP) clinically used as a therapeutic agent for ulcerative colitis.
# Symptoms of colitis were induced by allowing rats to freely drink 3% dextran sulfate sodium (DSS) solution for 10 days. […] For the observation of stool symptoms, the degree of stool condition was scored as the score of stool firmness (Stool Consistency Score: 0, 1, 2, 3) and blood stool (Bloody Stool Score: 0, 1, 2, 3). The total of Stool Consistency Score and Bloody Stool Score was taken as the Total Stool Score. Each group was composed of 8 animals. Salazosulfapyridine (SASP), which is an already-existing drug for treating inflammatory bowel disease, the present compound or the vehicle were administrated for 10 days from the start date of 3% DSS freely drinking.
# Streptococcus spp = experiment: antibacterial activity against intestinal bacteria (MIC); type: cell-based
# Description: (§1) The antibacterial activity of the present compound was examined against Bacteroides spp and Streptococcus spp, which are enterobacteria.
# (§2) The antibacterial activity (minimum inhibitory concentration (MIC)) was assayed by agar plate dilution method or broth microdilution method, which is based on Clinical and laboratory standards institute (CLSI). Specifically, the experiment was performed as follows. The compound of the present invention or the control substance was prepared by 2-fold serial dilution, respectively, and test strains were inoculated on the medium suitable for each test strain. After the inoculation followed by incubation at 37° C. under aerobic or anaerobic conditions, the minimum concentration at which colony formation was not observed in agar plate dilution method, or the minimum concentration without turbidity of the culture medium (the bacterial growth was not observed) in broth microdilution method was determined as MIC.
# Bacteroides spp = experiment: as above; type: cell-based
# Description: as §1, §2
# [2] = 11th day, present compound 1, 3, 10 mg/kg (P<0.01) or SASP 100 mg/kg (P<0.05) orally twice a day, Dunnett's test
# [3] = present compound groups, orally twice a day
smiles,measurement,setting,value
"Cc1c(-c2cnc(N)c(C#N)c2)c(F)cc2c(=O)c(C(=O)O)cn(C3CC3)c12 [the present compound, 7-(6-amino-5-cyanopyridin-3-yl)-1-cyclopropyl-6-fluoro-1,4-dihydro-8-methyl-4-oxo-3-quinoline-carboxylic acid]","histological score (Test 1, preventive effect)","[1]; 2.5 mg/kg or more, oral once a day from first day of transplantation until 5 weeks, vs solvent control",inhibited the increase of the histological score
same,"histological score (Test 2, therapeutic effect)","[1]; 5 mg/kg or more, oral once a day from 2nd week after transplantation until 5 weeks, vs solvent control",significantly inhibited the increase of the histological score
same,"histological score (Test 3, comparative study)","[1]; from 2nd week after transplantation for 2 weeks, present compound, CPFX, RFX oral once a day 10 mg/kg, antibody 25 mg/kg i.p. twice a week, 4th week",potent inhibitory effect at the same level as Normal group
same,area of the lesion area of the large intestine,"TNBS-induced enteritis; 100 mg/kg orally twice a day for 7 days, 8th day, vs vehicle control, P<0.01 t-test",significantly inhibited the area of lesion
same,number of death during the treatment,"TNBS-induced enteritis; 100 mg/kg orally twice a day, 12 rats per group",decreased the number of death
same,deaths,DSS-induced colitis; 1 mg/kg orally twice a day,One
same,deaths,DSS-induced colitis; 3 mg/kg orally twice a day,no death
same,effect on blood stool score at 10 mg/kg,DSS-induced colitis; 10 mg/kg orally twice a day,remarkable deterioration suppression effect
same,deaths,DSS-induced colitis; 10 mg/kg orally twice a day,no death
same,bloody stool score vs vehicle control,"DSS-induced colitis; 11th day, present compound 1 mg/kg (P<0.05), 3, 10 mg/kg (P<0.01) or SASP 100 mg/kg orally twice a day, Dunnett's test",Significant differences
same,stool firmness (Stool Consistency Score) vs vehicle control,DSS-induced colitis; [2],Significant differences
same,total stool score vs vehicle control,DSS-induced colitis; [2],Significant differences
same,day from which deterioration suppression effect on blood stool score was observed,DSS-induced colitis; [3],from the 6th day
same,day from which deterioration suppression effect on stool firmness score was observed,DSS-induced colitis; [3],from the 9th day
same,antibacterial activity,Streptococcus spp,strong antibacterial activities
same,antibacterial activity,Bacteroides spp,strong antibacterial activities
